Values after ≈ are worked out from the molar mass of the structure shown.
What was measured:
Format in all cases: cell-based
Acinetobacter baumannii = test: MIC and MBC by broth dilution in 96-well plate
Experimental: (§1) From the stock solutions of the drugs Alexidine and Chlorhexidine, dilution series was prepared in the wells of a 96-well plate by performing 1:1 dilutions to cover a concentration range of 0-512 ppm. Ten microliters from each of the drug concentration was mixed with […] of culture broth containing approximately 10^5CFU/mL of bacteria or yeast species. The test plate was incubated for 18-24 hours after which absorbance of each well was read at 670 nm on a BioTek plate reader. […] The wells containing growth should have had higher absorbance reading when compared to the drug control wells. After reading the absorbance for the MIC, 10 μl of each test well was plated onto the surface of D/E agar in 6 or 12 well microtiter plates to determine the MBC. The plates were incubated inverted at 37° C. for 24-48 hours after which numbers of colonies were counted. The MBC value was the lowest concentration of the drug at which no growth was observed.

Candida albicans [1] = test: MIC and MBC by broth dilution in 96-well plate
Experimental: as §1

Enterobacter cloacae = test: MIC and MBC by broth dilution in 96-well plate
Experimental: as §1

Enterococcus faecalis = test: MIC and MBC by broth dilution in 96-well plate
Experimental: as §1

Proteus mirabilis = test: MIC and MBC by broth dilution in 96-well plate
Experimental: as §1

Pseudomonas aeruginosa [2] = test: MIC and MBC by broth dilution in 96-well plate
Experimental: as §1

Staphylococcus aureus [3] = test: MIC and MBC by broth dilution in 96-well plate
Experimental: as §1

Candida albicans [4] = test: Time to Kill; conditions: 128 ppm; C. albicans challenge 10^4-10^5 CFU/mL
Experimental: (§2) Alexidine and Chlorhexidine, both at a concentration of 128 ppm were exposed to a Gram positive bacteria (Staphylococcus aureus), a Gram negative bacteria (Pseudomonas aeruginosa), and a fungus (Candida albicans). The challenge concentration for each organism was 10^4-10^5 CFU/mL, and the exposure time varied from 0.5-60 minutes. […] Complete kill of all three organisms was observed within 0.5 -1 minute of Alexidine exposure.

Pseudomonas aeruginosa [5] = test: Time to Kill; conditions: 128 ppm; P. aeruginosa challenge 10^4-10^5 CFU/mL
Experimental: as §2

Staphylococcus aureus [6] = test: Time to Kill; conditions: 128 ppm; S. aureus challenge 10^4-10^5 CFU/mL
Experimental: as §2

Row | MIC (Acinetobacter baumannii) [µg/mL] | MIC (Candida albicans [1]) [µg/mL] | MIC (Enterobacter cloacae) [µg/mL] | MIC (Enterococcus faecalis) [µg/mL] | MIC (Proteus mirabilis) [µg/mL] | MIC (Pseudomonas aeruginosa [2]) [µg/mL] | MIC (Staphylococcus aureus [3]) [µg/mL] | Structure (SMILES) | MBC (Acinetobacter baumannii) [µg/mL] | MBC (Candida albicans [1]) [µg/mL] | MBC (Enterobacter cloacae) [µg/mL] | MBC (Enterococcus faecalis) [µg/mL] | MBC (Proteus mirabilis) [µg/mL] | MBC (Pseudomonas aeruginosa [2]) [µg/mL] | MBC (Staphylococcus aureus [3]) [µg/mL] | Time to complete kill (Candida albicans [4]) [min] | Time to complete kill (Pseudomonas aeruginosa [5]) [min] | Time to complete kill (Staphylococcus aureus [6]) [min]
1 | 0.5 (≈ 0.983 µM) | 1 (≈ 1.97 µM) | 2 (≈ 3.93 µM) | 0.5 (≈ 0.983 µM) | 1 (≈ 1.97 µM) | 8 (≈ 15.7 µM) | 0.5 (≈ 0.983 µM) | CCCCC(CC)CNC(=N)NC(=N)NCCCCCCNC(=N)NC(=N)NCC(CC)CCCC (stereo not shown) [Alexidine] | 1 (≈ 1.97 µM) | 1 (≈ 1.97 µM) | 2 (≈ 3.93 µM) | 2 (≈ 3.93 µM) | 2 (≈ 3.93 µM) | 128 (≈ 252 µM) | 1 (≈ 1.97 µM) | 0.5 to 1 | 0.5 to 1 | 0.5 to 1
2 | 16 (≈ 31.7 µM) | 2 (≈ 3.96 µM) | 2 (≈ 3.96 µM) | 2 (≈ 3.96 µM) | 8 (≈ 15.8 µM) | 8 (≈ 15.8 µM) | 0.5 (≈ 0.989 µM) | [H]/N=C(\N/C(=N/[H])NCCCCCCNC(=N)NC(=N)Nc1ccc(Cl)cc1)Nc1ccc(Cl)cc1 [Chlorhexidine] | 32 (≈ 63.3 µM) | 4 (≈ 7.91 µM) | 32 (≈ 63.3 µM) | 64 (≈ 127 µM) | 8 (≈ 15.8 µM) | 64 (≈ 127 µM) | 16 (≈ 31.7 µM) | 60 | 5 | 60
